US20060177448A1, “Inhibiting HER2 shedding with matrix metalloprotease antagonists” (Genentech, Inc., priority 2005, published 2006)

Experiments:
SKBR-3 cells = assay: HER2 ECD ELISA of conditioned media (HER2 shedding), SKBR-3 cells; type: cell-based, human
Method: BT 474, MCF-7, and SKBR-3 cells were maintained in high-glucose DMEM:Ham's F12 (50:50) supplemented with 10% heat-inactivated FBS and 2 mM L-Glutamine. […] Cell lines were maintained at 37° C. in a humidified incubator supplied with 5% CO2. BT 474 and SKBR-3 cells were transiently transfected with constructs as described by electroporation using kit V according to the manufacturer's instructions (AMAXA™).
Serum was diluted 1:50 using assay buffer (PBS/0.5% BSA, 0.05% TWEEN® 20/10 ppm PROCLIN® 300/0.2% BGG/0.25% CHAPS/0.15 M NaCl/5mM EDTA (pH 7.4) followed by additional 1:2 serial dilutions. Shed HER2 was captured using a goat anti-HER2 polyclonal antibody (Genentech) onto NUNC® Maxisorp plates and detected using a biotin-conjugated rabbit anti-HER2 polyclonal antibody (Genentech) followed by a AMDEX™-strepavidin-horseradish peroxidase antibody (Amersham Pharmacia Biotech) following a procedure described previously (Sias et al., J. Immunol. Meth. 109:219-27 (1990)). For cell culture experiments, cells were treated as indicated and conditioned media was collected and diluted in assay buffer serially 1:2. The concentration of shed HER2 in serum or in conditioned media was determined from a four-parameter fit of a standard curve using purified recombinant HER2 ECD protein (Genentech) as a standard.
The pSIREN shRNA construct(s) or vector alone were transiently transfected into SKBR-3 and BT 474 cells using AMAXA™ kit V following manufacturer's recommendations. After 48 hours, conditioned media was collected and assayed for shed HER2 by HER2 ELISA and the cells were lysed directly on the plate using 2×Sample buffer.

Fo5 tumors = assay: GM6001 injections in FVB mice with Fo5 xenograft tumors (serum HER2 ECD ELISA, p95 HER2 Western blot); type: in vivo, mouse; conditions: 100 mg/kg intraperitoneally daily for 3 days, day four
Text: The Fo5 and f2: 1282 lines have been previously described (Finkle et al., Clin. Cancer Res. 10: 2499-2511 (2004)). These lines were derived from primary tumors from a MMTV HER2 transgenic mouse and passaged in the mammary fat pad of FVB mice.
Fo5 tumors were transplanted into FVB mice and allowed to grow to an average size of 400-600 mm^3 prior to initiating the study. GM6001 (3-[N-hydroxycarbomyl]-[2R]-isobutylpropionyl-L-tryptophan methylamide) was obtained from Calbiochem and reconstituted in a slurry of 4% carboxymethylcellulose/0.9% PBS and administered daily by intraperitoneal injection at 100 mg/kg body weight for 3 days. […] Tumors size was measured at day 0 and at day 4. […]
Serun from mice harboring Fo5 or f2: 1282 xenograft tumors was collected by cardiac puncture and HER2 ECD levels detected using a previously described HER2 ELISA (Finkle et al. Clin. Cancer Res. 10: 2499-2511 (2004)). […] The concentration of shed HER2 in serum or in conditioned media was determined from a four-parameter fit of a standard curve using purified recombinant HER2 ECD protein (Genentech) as a standard.
Fo5 and f2:1282 tumors were resuspended in lysis buffer with protease inhibitors and homogenized using a POLYTRON TISSUEMIZER™ (PT2 100) on ice. Tumor lysates were cleared of insoluble material by centrifugation and total protein levels were determined using a BCA protein assay kit. […]

[1] = tested on: breast carcinoma cell lines; conditions: cited from earlier work

Compound: Timp-1: naturally occurring peptides that regulate metalloprotease activity
- HER2 ECD levels in conditioned media (SKBR-3 cells; 1 μg/ml): reduced HER2 ECD levels

Compound: CNC(=O)[C@H](Cc1c[nH]c2ccccc12)NC(=O)[C@@H](CC(=O)NO)CC(C)C [GM6001, 3-[N-hydroxycarbomyl]-[2R]-isobutylpropionyl-L-tryptophan methylamide]
- amount of p95 HER2 in tumor lysates compared to control animals (Fo5 tumors): significant reduction
- serum HER2 ECD levels (Fo5 tumors; versus vehicle): greater reduction
- inhibition of HER2 shedding (HER2 ECD ELISA) (SKBR-3 cells; dose response): dose dependently inhibited HER2 shedding

Compound: CNC(=O)[C@H](Cc1ccccc1)NC(=O)[C@H](CC(C)C)[C@H](CSc1cccs1)C(=O)NO [BB-94]
- inhibition of HER2 ECD shedding [1]: inhibited HER2 ECD shedding
